Data: patent publication US8802597B2, “Herbicidal pyrimidines” (E I du Pont de Nemours and Company, priority 2003, dated 2014)

How the values were obtained:
Format in all cases: in vivo
[1] = system: barnyardgrass (Echinochloa crus-galli); test: Test A pre/postemergence
Method in brief: (§1)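 Soil: loam blended with sand. Formulation: non-phytotoxic solvent mixture with surfactant. Timing: preemergence soil spray plus concurrent postemergence spray (plants 2–10 cm, 1–2 leaves). Readout: visual injury versus untreated controls at ~10 days, 0–100.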

[2] = system: crabgrass (Digitaria sanguinalis); test: Test A pre/postemergence
Method in brief: as §1

[3] = system: giant foxtail (Setaria faberi); test: Test A pre/postemergence
Method in brief: as §1

[4] = system: morningglory (Ipomoea spp.); test: Test A pre/postemergence
Method in brief: as §1

[5] = system: redroot pigweed (Amaranthus retroflexus); test: Test A pre/postemergence
Method in brief: as §1

[6] = system: velvetleaf (Abutilon theophrasti); test: Test A pre/postemergence
Method in brief: as §1

[7] = system: barnyardgrass (Echinochloa crus-galli); test: Test E flooded paddy water application; settings: Flood, 21 days, scale 0 to 100 (0 no effect, 100 complete control)
Text: (§2) Three plastic pots (ca. 16-cm diameter) per rate were partially filled with sterilized Tama silt loam soil comprising a 35:50:15 ratio of sand, silt and clay and 2.6% organic matter. Separate plantings for each of the three pots were as follows. Seeds from the U.S. of ducksalad (Heteranthera limosa), smallflower umbrella sedge (Cyperus difformis) and purple redstem (Ammannia coccinea), were planted into one 16-cm pot for each rate. Seeds from the U.S. of rice flatsedge (Cyperus iria), bearded (brdd.) sprangletop (Leptochloa fusca ssp. fascicularis), one stand of 9 or 10 water seeded rice seedlings (Oryza sativa cv. ‘Japonica-M202’), and one stand of 6 transplanted rice seedlings (Oryza sativa cv. ‘Japonica-M202’) were planted into one 16-cm pot for each rate. Seeds from the U.S. of barnyardgrass (Echinochloa crus-galli), late watergrass (Echinochloa oryzicola), early watergrass (Echinochloa oryzoides) and junglerice (Echinochloa colona) were planted into one 16-cm pot for each rate. Plantings were sequential so that crop and weed species were at the 2.0 to 2.5-leaf stage at time of treatment.
(§3) Potted plants were grown in a greenhouse with day/night temperature settings of 29.5/26.7° C., and supplemental balanced lighting was provided to maintain a 16-hour photoperiod. Test pots were maintained in the greenhouse until test completion.
(§4) At time of treatment, test pots were flooded to 3 cm above the soil surface, treated by application of test compounds directly to the paddy water, and then maintained at that water depth for the duration of the test. Effects of treatments on rice and weeds were visually evaluated by comparison to untreated controls after 21 days. Plant response ratings, summarized in Table E, are based on a scale of 0 to 100 where 0 is no effect and 100 is complete control. A dash (-) response means no test result.

[8] = system: bearded (brdd.) sprangletop (Leptochloa fusca ssp. fascicularis); test: Test E flooded paddy water application; settings: Flood, 21 days, scale 0 to 100 (0 no effect, 100 complete control)
Text: as §2, §3, §4

[9] = system: ducksalad (Heteranthera limosa); test: Test E flooded paddy water application; settings: Flood, 21 days, scale 0 to 100 (0 no effect, 100 complete control)
Text: as §2, §3, §4

[10] = system: early watergrass (Echinochloa oryzoides); test: Test E flooded paddy water application; settings: Flood, 21 days, scale 0 to 100 (0 no effect, 100 complete control)
Text: as §2, §3, §4

[11] = system: junglerice (Echinochloa colona); test: Test E flooded paddy water application; settings: Flood, 21 days, scale 0 to 100 (0 no effect, 100 complete control)
Text: as §2, §3, §4

[12] = system: late watergrass (Echinochloa oryzicola); test: Test E flooded paddy water application; settings: Flood, 21 days, scale 0 to 100 (0 no effect, 100 complete control)
Text: as §2, §3, §4

[13] = system: purple redstem (Ammannia coccinea); test: Test E flooded paddy water application; settings: Flood, 21 days, scale 0 to 100 (0 no effect, 100 complete control)
Text: as §2, §3, §4

[14] = system: rice flatsedge (Cyperus iria); test: Test E flooded paddy water application; settings: Flood, 21 days, scale 0 to 100 (0 no effect, 100 complete control)
Text: as §2, §3, §4

[15] = system: smallflower umbrella sedge (Cyperus difformis); test: Test E flooded paddy water application; settings: Flood, 21 days, scale 0 to 100 (0 no effect, 100 complete control)
Text: as §2, §3, §4

[16] = system: transplanted rice seedlings (Oryza sativa cv. ‘Japonica-M202’); test: Test E flooded paddy water application; settings: Flood, 21 days, scale 0 to 100 (0 no effect, 100 complete control)
Text: as §2, §3, §4

[17] = system: water seeded rice seedlings (Oryza sativa cv. ‘Japonica-M202’); test: Test E flooded paddy water application; settings: Flood, 21 days, scale 0 to 100 (0 no effect, 100 complete control)
Text: as §2, §3, §4

[18] = Postemergence, 125 g ai/ha, 0 to 100 scale (0 no effect, 100 complete control)
[19] = Postemergence, 500 g ai/ha, 0 to 100 scale (0 no effect, 100 complete control)
[20] = Preemergence, 125 g ai/ha, 0 to 100 scale where 0 is no effect and 100 is complete control, approximately ten days
[21] = Preemergence, 500 g ai/ha, 0 to 100 scale where 0 is no effect and 100 is complete control, approximately ten days

SMILES: CCOC(=O)c1nc(-c2ccc(Cl)cc2Cl)nc(N)c1Br [Compound 67]
- Plant response rating, Barnyardgrass [1, 18]: 0
- Plant response rating, Barnyardgrass [1, 19]: 0
- Plant response rating, Barnyardgrass [1, 20]: 0
- Plant response rating, Barnyardgrass [1, 21]: 0
- Plant response rating, Crabgrass [2, 18]: 5
- Plant response rating, Crabgrass [2, 19]: 5
- Plant response rating, Crabgrass [2, 20]: 0
- Plant response rating, Crabgrass [2, 21]: 30
- Plant response rating, Foxtail, Giant [3, 18]: 0
- Plant response rating, Foxtail, Giant [3, 19]: 0
- Plant response rating, Foxtail, Giant [3, 20]: 0
- Plant response rating, Foxtail, Giant [3, 21]: 30
- Plant response rating, Morningglory [4, 18]: 50
- Plant response rating, Morningglory [4, 19]: 60
- Plant response rating, Morningglory [4, 20]: 0
- Plant response rating, Morningglory [4, 21]: 0
- Plant response rating, Pigweed [5, 18]: 90
- Plant response rating, Pigweed [5, 19]: 90
- Plant response rating, Pigweed [5, 20]: 10
- Plant response rating, Pigweed [5, 21]: 75
- Plant response rating, Velvetleaf [6, 18]: 65
- Plant response rating, Velvetleaf [6, 19]: 75
- Plant response rating, Velvetleaf [6, 20]: 10
- Plant response rating, Velvetleaf [6, 21]: 40
- Barnyardgrass plant response rating ([7]; 32 g ai/ha): 0
- Barnyardgrass plant response rating ([7]; 64 g ai/ha): 0
- Barnyardgrass plant response rating ([7]; 125 g ai/ha): 40
- Barnyardgrass plant response rating ([7]; 250 g ai/ha): 40
- Plant response rating, Barnyardgrass ([7]; 16 g ai/ha): 0
- Sprangletop, Brdd. plant response rating ([8]; 32 g ai/ha): 0
- Sprangletop, Brdd. plant response rating ([8]; 64 g ai/ha): 0
- Sprangletop, Brdd. plant response rating ([8]; 125 g ai/ha): 30
- Sprangletop, Brdd. plant response rating ([8]; 250 g ai/ha): 30
- Plant response rating, Sprangletop, Brdd. ([8]; 16 g ai/ha): 0
- Ducksalad plant response rating ([9]; 32 g ai/ha): 100
- Ducksalad plant response rating ([9]; 64 g ai/ha): 100
- Ducksalad plant response rating ([9]; 125 g ai/ha): 100
- Ducksalad plant response rating ([9]; 250 g ai/ha): 100
- Plant response rating, Ducksalad ([9]; 16 g ai/ha): 85
- Watergrass, Early plant response rating ([10]; 32 g ai/ha): 0
- Watergrass, Early plant response rating ([10]; 64 g ai/ha): 0
- Watergrass, Early plant response rating ([10]; 125 g ai/ha): 0
- Watergrass, Early plant response rating ([10]; 250 g ai/ha): 0
- Plant response rating, Watergrass, Early ([10]; 16 g ai/ha): 0
- Junglerice plant response rating ([11]; 32 g ai/ha): 0
- Junglerice plant response rating ([11]; 64 g ai/ha): 0
- Junglerice plant response rating ([11]; 125 g ai/ha): 30
- Junglerice plant response rating ([11]; 250 g ai/ha): 65
- Plant response rating, Junglerice ([11]; 16 g ai/ha): 0
- Watergrass, Late plant response rating ([12]; 32 g ai/ha): 0
- Watergrass, Late plant response rating ([12]; 64 g ai/ha): 0
- Watergrass, Late plant response rating ([12]; 125 g ai/ha): 0
- Watergrass, Late plant response rating ([12]; 250 g ai/ha): 0
- Plant response rating, Watergrass, Late ([12]; 16 g ai/ha): 0
- Redstem plant response rating ([13]; 32 g ai/ha): 0
- Redstem plant response rating ([13]; 64 g ai/ha): 0
- Redstem plant response rating ([13]; 125 g ai/ha): 0
- Redstem plant response rating ([13]; 250 g ai/ha): 85
- Plant response rating, Redstem ([13]; 16 g ai/ha): 0
- Flatsedge, Rice plant response rating ([14]; 32 g ai/ha): 0
- Flatsedge, Rice plant response rating ([14]; 64 g ai/ha): 30
- Flatsedge, Rice plant response rating ([14]; 125 g ai/ha): 60
- Flatsedge, Rice plant response rating ([14]; 250 g ai/ha): 60
- Plant response rating, Flatsedge, Rice ([14]; 16 g ai/ha): 0
- Sedge, Umbrella plant response rating ([15]; 32 g ai/ha): 0
- Sedge, Umbrella plant response rating ([15]; 64 g ai/ha): 0
- Sedge, Umbrella plant response rating ([15]; 125 g ai/ha): 40
- Sedge, Umbrella plant response rating ([15]; 250 g ai/ha): 70
- Plant response rating, Sedge, Umbrella ([15]; 16 g ai/ha): 0
- Rice, Transplanted plant response rating ([16]; 32 g ai/ha): 0
- Rice, Transplanted plant response rating ([16]; 64 g ai/ha): 0
- Rice, Transplanted plant response rating ([16]; 125 g ai/ha): 0
- Rice, Transplanted plant response rating ([16]; 250 g ai/ha): 0
- Plant response rating, Rice, Transplanted ([16]; 16 g ai/ha): 0
- Rice, Water Seeded plant response rating ([17]; 32 g ai/ha): 0
- Rice, Water Seeded plant response rating ([17]; 64 g ai/ha): 0
- Rice, Water Seeded plant response rating ([17]; 125 g ai/ha): 0
- Rice, Water Seeded plant response rating ([17]; 250 g ai/ha): 0
- Plant response rating, Rice, Water Seeded ([17]; 16 g ai/ha): 0
